Measurements published in PMC11370232, “Repurposing of a library for high-content screening of inhibitors against Echinococcus granulosus” (Parasites & Vectors, 2024).
Converted amounts (≈) assume the structure as drawn. Counter-ions that a name gives are not always drawn. Like-named read-outs stand apart in the source and are kept apart here.

Experiments:
ALK = test system: ALK; parameters: method as in SelleckChem library description; conditions: ref SelleckChem library description, cited from earlier work
[1] = test system: lab-cultured E. granulosus cysts (> 1 mm); test: In vitro cyst viability assay; format: cell-based, Echinococcus granulosus; conditions: for inhibition at 10 µM: Echinococcus granulosus, 72 h, read-out: inhibitory rate against the cysts
[2] = test system: lab-cultured E. granulosus microcysts (< 1 mm); test: In vitro microcyst viability assay; format: cell-based, Echinococcus granulosus; conditions: 10 μM, 4 days
Protocol: The in vitro E. granulosus culture progression was divided into two stages: an early stage in which the PSC culture was established by digesting echinococcal cysts isolated from naturally infected sheep livers, followed by a late stage with differentiation into cysts. CSCs were cultured from PSCs according to our previously described method. Briefly, the PSCs were incubated at 37 °C in glass culture vessels in RPMI 1640 medium (Invitrogen, San Diego, CA) containing 20% (v/v) FCS (Invitrogen), 0.45% (w/v) yeast extract, 0.4% (w/v) glucose, 100 IU/mL penicillin, and 100 μg/mL streptomycin placed on a solid-phase base prepared by heating newborn calf serum at 75 °C for 45 min (Smyth, 1990). Approximately 100 PSCs/mL were cultured, and the liquid medium was replaced every 3 days. After 56 days of cultivation, about 10% of the PSCs had developed into cysts with a thin laminated layer. The external diameter of the cysts was 328.6 ± 48 μm, and they appeared to the naked eye as clear capsular cysts. The cysts were carefully aspirated from the culture flasks and separated from dead or undeveloped PSCs by Pasteur pipetting. CSCs included microcysts and cysts: the diameter of the microcysts ranged from 300 μm to 1 mm, and the diameters of the cysts were greater than 1 mm.
CSCs were cultured from PSCs utilizing the method described in a previous section. The in vitro cultured cysts (10 ± 5/well) or microcysts (10 ± 5/well) were seeded in 96-well plates before adding drugs. For the cyst/microcyst viability assay, cysts or microcysts were cultured in one well of a 96-well plate. After 1 day of culture, drugs were added to each well at a final concentration of 10 μM. For the cyst viability assay, the cyst survival rate was determined every 24 h after incubation with drugs, while for the microcyst viability assay, the survival rate of microcysts was determined at 4 days after drug incubation. The following equation was used for the death rate: death rate of CSCs (%) = 100 × (number of dead CSCs/number of total CSCs).

[3] = test system: E. granulosus cysts collected from mice infected with microcysts; test: Ex vivo cyst viability assay; format: cell-based, Echinococcus granulosus; conditions: for metacestodicidal effect on cysts ex vivo: 1 to 20 μM, 7 days
Protocol: BALB/c mice were inoculated with cultured microcysts following the methodology outlined in a previous study; 10 weeks post-infection, the mice were euthanized, and cysts were harvested from the peritoneal cavity. The cysts were categorized as size-small cysts, with a diameter less than 5 mm and without PSCs, or large cysts, with a diameter greater than 5 mm and with PSCs. Subsequently, the cysts were incubated in bottles with RPMI 1640 culture medium enriched with 10% FCS and antibiotics.
To determine the effect of omaveloxolone (HY-12212, MCE) and niclosamide (HY-B0497, MCE) on isolated cyst viability ex vivo, cysts collected from the peritoneal cavity of infected mice were incubated with different concentrations of drugs (1, 5, and 20 μM) for 7 days. The mortality rate of the cysts was recorded each day according to the following equation: death rate of cyst/microcyst (%) = [number of dead (cysts and microcysts)/number of total (cysts and microcysts)].

[4] = test system: alpha- and beta-coronaviruses; conditions: cited from earlier work
Cytotoxicity in HepG2 = conditions: human
MALT1 = test system: MALT1; parameters: method as in SelleckChem library description; conditions: ref SelleckChem library description; cited from earlier work
in vitro = conditions: human
PI3Kα = test system: PI3Kα; parameters: method as in SelleckChem library description; conditions: ref SelleckChem library description; cited from earlier work
PI3Kβ = test system: PI3Kβ; parameters: method as in SelleckChem library description; conditions: ref SelleckChem library description; cited from earlier work
PI3Kγ = test system: PI3Kγ; parameters: method as in SelleckChem library description; conditions: ref SelleckChem library description; cited from earlier work
N. fowleri = test system: N. fowleri; parameters: method as in earlier work; conditions: cited from earlier work
20S proteasome = test system: 20S proteasome; parameters: method as in SelleckChem library description; conditions: ref SelleckChem library description; read-out: IC50, chymotrypsin-like activity of purified 20S proteasome; cited from earlier work
p97 = test system: p97; parameters: method as in SelleckChem library description; conditions: ref SelleckChem library description; cited from earlier work
EGFR = test system: EGFR; parameters: method as in SelleckChem library description; conditions: ref SelleckChem library description; cited from earlier work
[5] = test system: E. multilocularis metacestodes; parameters: method as in PMID 32636148; conditions: screening cascade; cited from earlier work
[6] = test system: E. multilocularis metacestode burden; parameters: method as in PMID 32636148; conditions: oral treatment, mice infected intraperitoneally with metacestodes or orally with eggs, compared with albendazole; cited from earlier work
[7] = test system: E. multilocularis and E. granulosus s.s. PSCs, metacestode vesicles, and germinal layer cells; parameters: method as in PMID 37540716; conditions: cited from earlier work
[8] = test system: E. multilocularis metacestodes; parameters: method as in PMID 30396011; conditions: cited from earlier work
HepG2 [9] = test: Cytotoxicity in HepG2; conditions: read-out: Cytotoxicity in HepG2, CC50; HepG2
[10] = test system: Plasmodium falciparum K1a; parameters: method as in SelleckChem library description; conditions: ref SelleckChem library description; cited from earlier work
[11] = test system: Trypanosoma brucei brucei GUTat 3.1; parameters: method as in SelleckChem library description; conditions: ref SelleckChem library description; cited from earlier work
HepG2 [12] = test system: HepG2
[13] = target: opioid receptor-like1 (ORL1) receptor; parameters: method as in SelleckChem library description; conditions: ref SelleckChem library description; cited from earlier work
echinococcal cysts = test system: echinococcal cysts; parameters: method as in PMID 32279056; conditions: three-dose intraperitoneal regimen, 57 mg/kg once a day for 3 days; cited from earlier work
Chk1 = test system: Chk1; parameters: method as in SelleckChem library description; conditions: ref SelleckChem library description, cited from earlier work
CE = test system: CE; parameters: method as in PMID 15708321, PMID 11776080; conditions: retrospective study; cited from earlier work
PTEN = test system: PTEN; parameters: method as in SelleckChem library description; conditions: ref SelleckChem library description; cited from earlier work

CC1(C)CC[C@]2(NC(=O)C(C)(F)F)CC[C@]3(C)[C@H](C(=O)C=C4[C@@]5(C)C=C(C#N)C(=O)C(C)(C)[C@@H]5CC[C@]43C)[C@@H]2C1 [Omaveloxolone]
inhibition at 10 µM [1]: 100% | effect on microcyst viability [2]: complete lethality | day on which all cysts were killed (complete lethality) [3]: ≤ 5 days | reduction in cyst viability ([3]; 5 μM, by day 2, ex vivo): 50% | metacestodicidal effect on cysts ex vivo [3]: obvious metacestodicidal effect | coronavirus inhibition [4]: inhibitors of both alpha- and beta-coronaviruses | CC50 (Cytotoxicity in HepG2; HepG2 cells): 9.33 µM

MI-2 [MI-2 (MALT1 inhibitor)]
IC50 (MALT1): 5.84 µM

CC(C)(C)c1ccc(C(O)CCCN2CCC(C(O)(c3ccccc3)c3ccccc3)CC2)cc1 (centres unmarked) [Terfenadine]
CC50 (in vitro): 7.31 µM

COc1ccc(-c2ccc3ncc4c(c3c2)n(-c2ccc(N3CCNCC3)c(C(F)(F)F)c2)c(=O)n4C)cn1 [BGT226 (NVP-BGT226), BGT226]
IC50 (PI3Kα): 4 nM | IC50 (PI3Kβ): 63 nM | IC50 (PI3Kγ): 38 nM

COC(=O)[C@]12CCC(C)(C)C[C@H]1[C@H]1C(=O)C=C3[C@@]4(C)C=C(C#N)C(=O)C(C)(C)[C@@H]4CC[C@@]3(C)[C@]1(C)CC2 [Bardoxolone methyl]
inhibition at 10 µM ([1]; 10 μM, day 3 post-treatment): 100% | inhibition of N. fowleri growth (N. fowleri; 24 h): approximately 85% | inhibition of N. fowleri growth (N. fowleri; 48 h): 97% | coronavirus inhibition [4]: inhibitors of both alpha- and beta-coronaviruses | CC50 (in vitro): 8.13 µM

CC1=C(O)C(=O)C=C2C1=CC=C1[C@@]2(C)CC[C@@]2(C)[C@@H]3C[C@](C)(C(=O)O)CC[C@]3(C)CC[C@]12C [Celastrol]
IC50 (20S proteasome): 2500 nM

c1ccc(CNc2nc(NCc3ccccc3)c3ccccc3n2)cc1 [DBeQ]
IC50 (p97): 1500 nM

CC#CC(=O)Nc1ccc2ncnc(Nc3cccc(Br)c3)c2c1 [CL-387785 (EKI-785), CL-387785]
IC50 (EGFR): 0.37 nM

CCC[C@H](NC(=O)/C(C#N)=C/c1cccc(Br)n1)c1ccccc1 [Degrasyn (WP1130), Degrasyn]
cyst morphology after treatment ([1]; day 3 post-drug treatment, positive control): structural damage of the cyst

O=C(Nc1ccc([N+](=O)[O-])cc1Cl)c1cc(Cl)ccc1O [Niclosamide]
inhibition at 10 µM ([1]; 10 μM, day 3 post-treatment): 100% | effect on microcyst viability [2]: complete lethality | day on which all cysts were killed (complete lethality) [3]: 7 days | metacestodicidal effect on cysts ex vivo [3]: obvious metacestodicidal effect | parasiticidal efficiency ([3]; low incubation concentration, from day 5, ex vivo): approximately 80% | activity against E. multilocularis metacestodes in vitro [5]: active | effect on metacestode burden [6]: did not lead to a reduction of the metacestode burden | activity against the parasites of both species in all four assays [7]: active | CC50 (in vitro): 6.14 µM

Cc1[nH]c2cc(F)cc(F)c2c(=O)c1-c1ccc(Oc2ccc(OC(F)(F)F)cc2)cc1 [MMV671636, ELQ-400]
MIC50 against E. multilocularis metacestodes cultured in vitro [8]: 0.02 µM (≈ 0.00895 µg/mL)

CC(=O)OC[C@H]1O[C@@H]([S-])[C@H](OC(C)=O)[C@@H](OC(C)=O)[C@@H]1OC(C)=O.CCP(CC)CC.[Au+] [Auranofin]
inhibitory rate against the cysts ([1]; 10 μM, day 3 post-treatment): 100% | effect on microcyst viability [2]: did not exert a significant inhibitory effect | CC50 (HepG2 [9]): 13.4 µM

Elaiophylin
IC50 [10]: 360 nM | IC50 [11]: 450 nM

CC(C)(Cc1ccc2ccccc2c1)NC[C@@H](O)COc1cccc(Cl)c1C#N [NPS-2143]
CC50 (HepG2 [12]): 15.3 µM

CCc1ccc(OCc2ccccc2C(=O)Nc2ccc3nc(C)cc(N)c3c2)cc1 [JTC-801]
inhibition at 10 µM ([1]; 10 μM, day 3 post-treatment): 100% | effect on microcyst viability [2]: did not exert a significant inhibitory effect | IC50 [13]: 94 nM | CC50 (Cytotoxicity in HepG2; HepG2 cells): 7.43 µM

COc1ccc2c(c[n+](C)c3c4cc5c(cc4ccc23)OCO5)c1OC [Chelerythrine]
inhibition at 10 µM ([1]; 10 μM, day 3 post-treatment): 100% | effect on microcyst viability [2]: did not exert a significant inhibitory effect | CC50 (Cytotoxicity in HepG2): 32.7 µM

COc1ccc2nc3cc(Cl)ccc3c(Nc3cc(CN4CCCC4)c(O)c(CN4CCCC4)c3)c2n1 [pyronaridine]
cyst mortality (echinococcal cysts): 100%

CC(C)(C)[C@H]1CC[C@H](CC2=C(O)C(=O)c3ccccc3C2=O)CC1 [MMV689480, buparvaquone]
MIC50 against E. multilocularis metacestodes cultured in vitro [8]: 2.87 µM (≈ 0.937 µg/mL)

CCCCc1oc2ccc(NS(C)(=O)=O)cc2c1C(=O)c1ccc(OCCCN(CCCC)CCCC)cc1 [Dronedarone HCl]
inhibition at 10 µM ([1]; 10 μM, day 3 post-treatment): 100% | effect on microcyst viability [2]: did not exert a significant inhibitory effect | CC50 (Cytotoxicity in HepG2; HepG2 cells): 15.5 µM

CC(=O)Oc1cc(C)c(OC(C)=O)c2ccccc12 [Vitamin K4]
CC50 (Cytotoxicity in HepG2; HepG2 cells): > 100 µM

OC(c1cc(C(F)(F)F)nc2c(C(F)(F)F)cccc12)C1CCCCN1 (centres unmarked) [mefloquine]
activity against E. multilocularis metacestodes in vitro [5]: active

CCCSc1ccc2nc(NC(=O)OC)[nH]c2c1 [albendazole]
patients who did not respond favorably to the medication (CE): about 40%

OC1(c2ccc(Cl)c(C(F)(F)F)c2)CCN(CCCC(c2ccc(F)cc2)c2ccc(F)cc2)CC1 [Penfluridol]
CC50 (Cytotoxicity in HepG2; HepG2 cells): 8.63 µM

O=C(Nc1cccc(C(F)(F)F)c1)c1cc(Cl)ccc1O [MMV665807]
activity against E. multilocularis metacestodes in vitro [5]: active | effect on metacestode burden [6]: did not lead to a reduction of the metacestode burden | activity against the parasites of both species in all four assays [7]: active

CC(C)(C)C(=O)Nc1ccc2c(c1)C(=O)C(=O)c1ccccc1-2 [SF1670]
IC50 (PTEN): 2000 nM
